In PubChem BioAssay (NCI):
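GI50 marks 50% less growth. TGI: concentration producing complete growth inhibition.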

Key:
Experiment in all cases: NCI-60 cell line screen, 384-well format
CAKI-1 renal = tested on: CAKI-1 renal
MALME-3M melanoma = tested on: MALME-3M melanoma
SK-MEL-28 melanoma = tested on: SK-MEL-28 melanoma
UACC-257 melanoma = tested on: UACC-257 melanoma
COLO 205 colon = tested on: COLO 205 colon
UO-31 renal = tested on: UO-31 renal
NCI-H522 lung = tested on: NCI-H522 lung
M14 melanoma = tested on: M14 melanoma
PC-3 prostate = tested on: PC-3 prostate
SN12C renal = tested on: SN12C renal
OVCAR-3 ovarian = tested on: OVCAR-3 ovarian
DU-145 prostate = tested on: DU-145 prostate
SK-MEL-5 melanoma = tested on: SK-MEL-5 melanoma
ACHN renal = tested on: ACHN renal
MDA-MB-435 melanoma = tested on: MDA-MB-435 melanoma
MDA-MB-231 breast = tested on: MDA-MB-231 breast
HCC-2998 colon = tested on: HCC-2998 colon
OVCAR-8 ovarian = tested on: OVCAR-8 ovarian
SNB-19 CNS = tested on: SNB-19 CNS
SW-620 colon = tested on: SW-620 colon
KM12 colon = tested on: KM12 colon
RPMI-8226 leukemia = tested on: RPMI-8226 leukemia
SF-268 CNS = tested on: SF-268 CNS
MDA-MB-468 breast = tested on: MDA-MB-468 breast
HOP-92 NSCLC = tested on: HOP-92 NSCLC
EKVX NSCLC = tested on: EKVX NSCLC
OVCAR-4 ovarian = tested on: OVCAR-4 ovarian
SF-295 CNS = tested on: SF-295 CNS
CCRF-CEM leukemia = tested on: CCRF-CEM leukemia
HL-60(TB) leukemia = tested on: HL-60(TB) leukemia
HT29 colon = tested on: HT29 colon
OVCAR-5 ovarian = tested on: OVCAR-5 ovarian
SK-OV-3 ovarian = tested on: SK-OV-3 ovarian
TK-10 renal = tested on: TK-10 renal
NCI-H23 lung = tested on: NCI-H23 lung
T-47D breast = tested on: T-47D breast
SNB-75 CNS = tested on: SNB-75 CNS
786-0 renal = tested on: 786-0 renal
A498 renal = tested on: A498 renal
RXF 393 renal = tested on: RXF 393 renal
NCI/ADR-RES ovarian = tested on: NCI/ADR-RES ovarian
NCI-H322M lung = tested on: NCI-H322M lung
UACC-62 melanoma = tested on: UACC-62 melanoma
HCT-15 colon = tested on: HCT-15 colon
NCI-H226 lung = tested on: NCI-H226 lung
LOX IMVI melanoma = tested on: LOX IMVI melanoma
NCI-H460 NSCLC = tested on: NCI-H460 NSCLC
SR leukemia = tested on: SR leukemia
IGROV1 ovarian = tested on: IGROV1 ovarian
A549 NSCLC = tested on: A549 NSCLC
HS 578T breast = tested on: HS 578T breast
SF-539 CNS = tested on: SF-539 CNS
HOP-62 NSCLC = tested on: HOP-62 NSCLC
BT-549 breast = tested on: BT-549 breast
K-562 leukemia = tested on: K-562 leukemia
MCF7 breast = tested on: MCF7 breast
MOLT-4 leukemia = tested on: MOLT-4 leukemia

With CCc1cc2ncc(CN3CCN(c4ccc(C(=O)NC)nc4)CC3)cc2[nH]c1=O the GI50 (CAKI-1 renal) was 34.5 µM, the TGI (CAKI-1 renal) was greater than 100 µM and the GI50 (MALME-3M melanoma) was 71.2 µM. The TGI (MALME-3M melanoma) was greater than 100 µM, the GI50 (SK-MEL-28 melanoma) was greater than 100 µM and the TGI (SK-MEL-28 melanoma) was greater than 100 µM. It also gave a GI50 (UACC-257 melanoma) greater than 100 µM, a TGI (UACC-257 melanoma) greater than 100 µM and a GI50 (COLO 205 colon) of 68.5 µM. For the same compound, the TGI (COLO 205 colon) was greater than 100 µM, the GI50 (UO-31 renal) was greater than 100 µM and the TGI (UO-31 renal) was greater than 100 µM. For the same compound, the GI50 (NCI-H522 lung) was 48.4 µM, the TGI (NCI-H522 lung) was greater than 100 µM and the GI50 (M14 melanoma) was greater than 100 µM. It also gave a TGI (M14 melanoma) greater than 100 µM, a GI50 (PC-3 prostate) greater than 100 µM and a TGI (PC-3 prostate) greater than 100 µM. The GI50 (SN12C renal) was 84 µM, the TGI (SN12C renal) was greater than 100 µM and the GI50 (OVCAR-3 ovarian) was 43.5 µM. It also gave a TGI (OVCAR-3 ovarian) greater than 100 µM, a GI50 (DU-145 prostate) greater than 100 µM and a TGI (DU-145 prostate) greater than 100 µM. For the same compound, the GI50 (SK-MEL-5 melanoma) was greater than 100 µM, the TGI (SK-MEL-5 melanoma) was greater than 100 µM and the GI50 (ACHN renal) was 70.5 µM. For the same compound, the TGI (ACHN renal) was greater than 100 µM, the GI50 (MDA-MB-435 melanoma) was greater than 100 µM and the TGI (MDA-MB-435 melanoma) was greater than 100 µM. The GI50 (MDA-MB-231 breast) was 30.5 µM, the TGI (MDA-MB-231 breast) was greater than 100 µM and the GI50 (HCC-2998 colon) was 20.2 µM. It also gave a TGI (HCC-2998 colon) greater than 100 µM, a GI50 (OVCAR-8 ovarian) of 42.1 µM and a TGI (OVCAR-8 ovarian) greater than 100 µM. The GI50 (SNB-19 CNS) was greater than 100 µM, the TGI (SNB-19 CNS) was greater than 100 µM and the GI50 (SW-620 colon) was greater than 100 µM. For the same compound, the TGI (SW-620 colon) was greater than 100 µM, the GI50 (KM12 colon) was greater than 100 µM and the TGI (KM12 colon) was greater than 100 µM. The GI50 (RPMI-8226 leukemia) was 3.3 µM, the TGI (RPMI-8226 leukemia) was 52.4 µM and the GI50 (SF-268 CNS) was 93.1 µM. It also gave a TGI (SF-268 CNS) greater than 100 µM, a GI50 (MDA-MB-468 breast) of 3.1 µM and a TGI (MDA-MB-468 breast) of 20.9 µM. It also gave a GI50 (HOP-92 NSCLC) of 25.9 µM, a TGI (HOP-92 NSCLC) greater than 100 µM and a GI50 (EKVX NSCLC) of 78.6 µM. For the same compound, the TGI (EKVX NSCLC) was greater than 100 µM, the GI50 (OVCAR-4 ovarian) was 53.9 µM and the TGI (OVCAR-4 ovarian) was greater than 100 µM. For the same compound, the GI50 (SF-295 CNS) was 71 µM, the TGI (SF-295 CNS) was greater than 100 µM and the GI50 (CCRF-CEM leukemia) was 29.5 µM. The TGI (CCRF-CEM leukemia) was greater than 100 µM, the GI50 (HL-60(TB) leukemia) was 36 µM and the TGI (HL-60(TB) leukemia) was greater than 100 µM. The GI50 (HT29 colon) was 80.1 µM, the TGI (HT29 colon) was greater than 100 µM and the GI50 (OVCAR-5 ovarian) was greater than 100 µM. The TGI (OVCAR-5 ovarian) was greater than 100 µM, the GI50 (SK-OV-3 ovarian) was greater than 100 µM and the TGI (SK-OV-3 ovarian) was greater than 100 µM. It also gave a GI50 (TK-10 renal) greater than 100 µM, a TGI (TK-10 renal) greater than 100 µM and a GI50 (NCI-H23 lung) of 87.2 µM. The TGI (NCI-H23 lung) was greater than 100 µM, the GI50 (T-47D breast) was 22 µM and the TGI (T-47D breast) was greater than 100 µM. The GI50 (SNB-75 CNS) was greater than 100 µM, the TGI (SNB-75 CNS) was greater than 100 µM and the GI50 ([…]-0 renal) was 72.2 µM. It also gave a TGI (786-0 renal) greater than 100 µM, a GI50 (A498 renal) greater than 100 µM and a TGI (A498 renal) greater than 100 µM. It also gave a GI50 (RXF 393 renal) greater than 100 µM, a TGI (RXF 393 renal) greater than 100 µM and a GI50 (NCI/ADR-RES ovarian) greater than 100 µM. The TGI (NCI/ADR-RES ovarian) was greater than 100 µM, the GI50 (NCI-H322M lung) was greater than 100 µM and the TGI (NCI-H322M lung) was greater than 100 µM. The GI50 (UACC-62 melanoma) was greater than 100 µM, the TGI (UACC-62 melanoma) was greater than 100 µM and the GI50 (HCT-15 colon) was 50 µM. The TGI (HCT-15 colon) was greater than 100 µM, the GI50 (NCI-H226 lung) was 53.1 µM and the TGI (NCI-H226 lung) was greater than 100 µM. For the same compound, the GI50 (LOX IMVI melanoma) was 23.9 µM, the TGI (LOX IMVI melanoma) was greater than 100 µM and the GI50 (NCI-H460 NSCLC) was 2.5 µM. The TGI (NCI-H460 NSCLC) was greater than 100 µM, the GI50 (SR leukemia) was 0.271 µM and the TGI (SR leukemia) was 20.5 µM. It also gave a GI50 (IGROV1 ovarian) of 60.1 µM, a TGI (IGROV1 ovarian) greater than 100 µM and a GI50 (A549 NSCLC) of 52.6 µM. The TGI (A549 NSCLC) was greater than 100 µM, the GI50 (HS 578T breast) was 18.9 µM and the TGI (HS 578T breast) was greater than 100 µM. The GI50 (SF-539 CNS) was greater than 100 µM, the TGI (SF-539 CNS) was greater than 100 µM and the GI50 (HOP-62 NSCLC) was 26.1 µM. The TGI (HOP-62 NSCLC) was greater than 100 µM, the GI50 (BT-549 breast) was 29.7 µM and the TGI (BT-549 breast) was greater than 100 µM. It also gave a GI50 (K-562 leukemia) of 74.6 µM, a TGI (K-562 leukemia) greater than 100 µM and a GI50 (MCF7 breast) of 23.6 µM. The TGI (MCF7 breast) was greater than 100 µM, the GI50 (MOLT-4 leukemia) was 2.3 µM and the TGI (MOLT-4 leukemia) was 26.1 µM.
